According to patent publication US20040166099A1, “Molecules preferentially associated with effector T cells and methods of their use” (TolerRx, Inc., priority 2002, published 2004):
“Also recorded” adds a separate entry of the source.

Experiments:
Assay type in all cases: cell-based, human
Th2 cells = test: Proliferation (3H-thymidine incorporation) of differentiated Th2 cells stimulated with CD3 and CD28
Description: (§1) FIG. 4 depicts inhibition of proliferation of Th1 and Th2 cells, but not regulatory T cells, by Rottlerin, a commercially available inhibitor of PKC enzymes. Differentiated cells were stimulated with CD3 and CD28 in the presence of absence of the PKC inhibitor Rottlerin. Incorporation of ^3H-thymidine was used to monitor cell proliferation. Proliferation of each cell type is normalized to the proliferation observed in the absence of inhibitor.
(§2) Differentiated cell lines were produced from cells prepared from human cord blood or peripheral blood CD4+CD45RA+naïve T cells by a variety of methods, including flow cytometry and magnetic bead separations. Purity of the starting populations was >95%. Cells were then stimulated by CD3 and CD28 antibodies in RPMI 1640 with 10% FCS and 1% Human AB serum with defined mixtures of cytokines and neutralizing antibodies to cytokines to produce the differentiated cell types. Th1 cells were produced by culture with IL12 (62 U/ml) and anti-IL4 (0.2 ug/ml); Th2 cells were produced by culture in IL4(145 U/ml) and anti-IL12 (10 ug/ml) and anti-IFNγ (10 ug/ml); and regulatory T cells were produced by culture in TGFβ (32 U/ml), IL9 (42 U/ml), anti-IL4 (10 ug/ml) and anti-IL12 (10 ug/ml) and anti-IFNγ(10 ug/ml). (Note: anti-IL12 was not used in all experiments). All cultures were supplemented with IL2 (65 U/ml) and IL15 (4500 U/ml). Cells were split into larger culture dishes as warranted by cell division. At the conclusion of one round of cell differentiation (7-12 days), cells were harvested for preparation of total RNA for use in the gene chip experiments.
(§3) Differentiated cells, prepared as above, were re-stimulated using CD3 and CD28 in the presence of a range of concentrations of the commercial inhibitor Rottlerin.
(§4) Three days after initiation of the cultures, three replicate tissue culture wells for each condition for each cell type were fed with media containing ^3H-thymidine to monitor cell division. Wells were harvested 18 hr later and incorporated ^3H was measured by scintillation counting.

[1] = test system: regulatory T cells (TGFβ-derived Treg cells); test: Proliferation (3H-thymidine incorporation) of differentiated regulatory T cells stimulated with CD3 and CD28
Description: as §1
Differentiated cell lines were produced from cells prepared from human cord blood or peripheral blood CD4+CD45RA+naïve T cells by a variety of methods, including flow cytometry and magnetic bead separations. Purity of the starting populations was >95%. Cells were then stimulated by CD3 and CD28 antibodies in RPMI 1640 with 10% FCS and 1% Human AB serum with defined mixtures of cytokines and neutralizing antibodies to cytokines to produce the differentiated cell types. […]
as §4

Th1 cells = test: Proliferation (3H-thymidine incorporation) of differentiated Th1 cells stimulated with CD3 and CD28
Description: as §1, §2, §3, §4

[2] = FIG. 5 legend, representative data
[3] = wells coated with CD3 and CD28, 3H-thymidine fed at day 3, harvested 18 hr later, increasing concentrations of inhibitor, FIG. 5

CC(=O)c1c(O)c(C)c(O)c(Cc2c(O)c3c(c(C(=O)/C=C/c4ccccc4)c2O)OC(C)(C)C=C3)c1O [Rottlerin]
inhibition of cell division / proliferation of Th2 cells (Th2 cells; Th2 cells re-stimulated using CD3 and CD28, 5 uM, three of three experiments, FIG. 4): inhibition; also recorded: inhibited
inhibition of proliferation of regulatory T cells ([1]; regulatory T cells re-stimulated using CD3 and CD28, range of concentrations, three of three experiments, FIG. 4): not and did not inhibit
inhibition of cell division / proliferation of Th1 cells (Th1 cells; Th1 cells re-stimulated using CD3 and CD28, 5 uM, three of three experiments, FIG. 4): inhibition; also recorded: inhibited

NH2-RQIKIWFQNRRMKWKKMDQNMFRNFSFNMP-COOH (H-RQIKIWFQNRRMKWKKMDQNMFRNFSFNMP-OH) [antennapedia-PKCθ peptide]
inhibition of proliferation of Th2 cells (in words) (Th2 cells; [2]): selectively inhibits
proliferation of Th2 cells relative to control (Th2 cells; [3]): 16 % of control levels
inhibition of proliferation of TGFβ-derived Treg cells (in words) [1, 2]: not
inhibition of proliferation of Th1 cells (in words) (Th1 cells; [2]): selectively inhibits
proliferation of Th1 cells relative to control (Th1 cells; [3]): 16 % of control levels
